Measured values published in PMC4490744, “Protective effect of a Protein Epitope Mimetic CCR10 antagonist, POL7085, in a model of allergic eosinophilic airway inflammation” (Respiratory Research, 2015).

Assays:
[1] = test system: OVA-sensitized and challenged Balb/c mice; assay: BAL total and differential cell counts, OVA model; type: in vivo, mouse; details: 24 h after last challenge, POL7085 15 mg/kg or DEX 1 mg/kg i.n. once daily 1 h before challenge, p < 0.001
Experimental: (§1) Bronchoalveolar lavage (BAL) was performed 24 h after the last OVA challenge as previously described. Mice were anaesthetized i.p. (ketamine 150 mg/kg, xylazine 10 mg/kg). A plastic cannula was inserted in the exposed trachea, and airways were washed with 0.5 mL of 0.9 % NaCl (saline) injected with a 1 mL syringe. This procedure was performed ten times. The initial concentrated supernatant of the two first lavages (2 × 0.5 mL administered, approx. 0.5 mL recovered) was collected for cytokine measurements. The remainder of the BALF was centrifuged (600 g for 5 min, 4 °C), and cell pellets pooled. After lysis of erythrocytes with distilled water followed by osmotic re-equilibration and centrifugation, the cell pellet was suspended in 500 μL of saline and total cell counted on a haemocytometer chamber (Neubauer, PRECISS®). Cells were cytocentrifuged at 700 rpm for 10 min (Cytospin 4, Thermo Fischer Scientific), and stained with Diff-Quick® (Merck) for differential cell counts performed on at least 400 cells.

[2] = test system: OVA-sensitized and challenged Balb/c mice; assay: BAL cytokines by ELISA, OVA model; type: in vivo, mouse; details: 24 h after last challenge
Experimental: as §1, with “Cells were cytocentrifuged at 700 rpm for 10 min (Cytospin 4, Thermo Fischer Scientific), and stained with Diff-Quick® (Merck) for differential cell counts performed on at least 400 cells.” left out
(§2) IL-5, IFN-γ (BD Pharmingen), CCL28 (R&D system) ELISA kits and Th17 Milliplex® (Millipore) were used according to the manufacturer’s instructions. For BALF recovered 24 h after the last OVA challenge, IL-5 and IFN-γ were quantified by ELISA. For lung homogenate, concentrations of IL-4, IL-5, IL-13, IL-17a and IL-17f were quantified by Milliplex® in the supernatants obtained after lung tissue was homogenised with an UltraTurax® and centrifuged at 10,000 g for 10 min at 4 °C.

[3] = test system: OVA-sensitized and challenged Balb/c mice; assay: Lung homogenate cytokines by Milliplex, OVA model; type: in vivo, mouse; details: POL7085 7.5 and 15 mg/kg or DEX 1 mg/kg i.n.
Experimental: as §2

[4] = test system: OVA-sensitized and challenged Balb/c mice; assay: Plasma OVA-specific IgE by ELISA, OVA model; type: in vivo, mouse; details: D22, ELISA
Experimental: Plasma IgE levels were determined by ELISA. Microtiter plates were coated overnight at 4 °C with the capture antibody, anti-mouse IgE at 2 μg/well in carbonate buffer, pH 9.5 (BD Pharmingen, clone R35-118).

[5] = test system: OVA-sensitized and challenged Balb/c mice; assay: Lung tissue CCL28 by ELISA, OVA model; type: in vivo, mouse; details: POL7085 p < 0.05
Experimental: as §2

[6] = test system: OVA-sensitized and challenged Balb/c mice; assay: Lung CCR3 mRNA by RT-qPCR, OVA model; type: in vivo, mouse; details: 2^ΔΔCt, not significant
Experimental: All procedures were performed according to the manufacturer’s instructions. Lung tissue was homogenised in a Fastprep®, and total RNA extracted with Tri-Reagent® (1 mL/left lung; Euromedex) and purified with mini RNeasy® Kit (Qiagen). RNA pellets were suspended in nuclease-free water (DEPC). RNA concentration and quality were determined in each preparation with a Nanodrop® spectrophotometer.
Reverse transcription was performed on 10 μg/mL of total RNA by the High Capacity cDNA Archive kit® (Life Technologies™) for 10 min at 25 °C and 2 h at 37 °C, and cDNAs were stored at −80 °C until use. Quantitative PCR was performed by real-time fluorescent PCR with TaqMan® Gene Expression Assay in 96 well plate format (Life Technologies™, ABI7000) using TaqMan® Gene Expression Assay primers (Life Technologies™ for HPRT1 (Mm01545399_m1), CCR10 (Mm01292449_m1), CCL28 (Mm00445039_m1) and CCR3 (Mm00515543_s1). To analyse the low expression of CCR10, CCL28 and CCR3, a preamplification was performed with TaqMan® PreAmp Master Mix (Life Technologies™) and TaqMan® Gene Expression Assay (10 min at 95 °C followed by 14 cycles: 15 s at 95 °C and 4 min at 60 °C). Preamplified cDNAs were stored at −80 °C until use and diluted 1/20 with 1X TE buffer for use. […]

[7] = test system: OVA-sensitized and challenged Balb/c mice; assay: Colorimetric assay of lung mucus, OVA model; type: in vivo, mouse
Experimental: Mucus was measured in lung homogenate by a mucus colorimetric assay: 100 μL samples were mixed with 20 μL acid mucus reagent (0.2 % periodic acid) incubated for 1 h at 37 °C, then 20 μL mucus dye reagent (pararosaniline 1 %, 10 N hydrochloric acid 1 %) was added and samples were incubated for a further 30 min at 37 °C, before optical density measurement at 555 nm.

[8] = test system: OVA-sensitized and challenged Balb/c mice; assay: Airway responsiveness to methacholine, whole body barometric plethysmography; type: in vivo, mouse; details: DEX 1 mg/kg i.n., p < 0.001
Experimental: Airway responsiveness to aerosolized methacholine (MCh; Sigma-Aldrich, A2251) was measured in conscious mice on day 22 (24 h after the last OVA challenge) by whole body barometric plethysmography (Emka Technologies). Mice were acclimatized in the plethysmograph chamber for 30 min until a stable baseline was obtained, and then exposed to aerosolized saline for 30 s as a control. Mice were then challenged every 20 min with aerosolized MCh at increasing concentrations (0.05, 0.1, 0.2 and 0.3 M) for 30 s, and the enhanced pause (PenH) was recorded for 5 min and used as an index of airway obstruction.

[9] = test system: OVA-sensitized and challenged Balb/c mice; assay: Lung histology (haematoxylin-eosin), OVA model; type: in vivo, mouse; details: POL7085 15 mg/kg or DEX 1 mg/kg i.n.
Experimental: Lung tissues were fixed in 4 % paraformaldehyde and paraffin-embedded. 6 μm sections were cut, mounted on Superfrost glass slides (Fischer Scientific) and stained with haematoxylin-eosin for light microscopy morphological analysis or periodic acid-Schiff (PAS) staining to determine the extent of mucus production. The area of epithelial cells containing the mucus were measured and expressed relative to the total bronchus perimeter.

[10] = test system: OVA-sensitized and challenged Balb/c mice; assay: Immunohistochemistry of CCR10 in the lung, OVA model; type: in vivo, mouse; details: CCR10 immunolabelling
Experimental: Sections (3 μm) of lung tissue were cut, mounted, placed in Sequenza® immunostaining with Coverplate™ (Thermo Scientific Shandon), and antigen retrieval was performed with proteinase K in Tris-EDTA buffer (pH 8; Fluka) for 35 min at 37 °C. The endogenous enzyme was blocked with Dual Endogenous Enzyme Block (Dako Cytomation) and slides were incubated overnight at 4 °C with the primary antibody 1/1000 (goat anti-mouse CCR10 antibody; Capralogics), followed by 30 min at RT with the secondary rabbit anti-goat antibody (Vector) and 30 min at RT with extravidin peroxidase (Sigma-Aldrich).

[11] = test system: OVA-sensitized and challenged Balb/c mice; assay: Colorimetric assay of lung collagen, OVA model; details: lung homogenate, POL7085 p < 0.05, DEX 1 mg/kg p < 0.001

C[C@@H]1C[C@H]2[C@@H]3CCC4=CC(=O)C=C[C@]4(C)[C@@]3(F)[C@@H](O)C[C@]2(C)[C@@]1(O)C(=O)CO [DEX, dexamethasone]
inhibition of BAL eosinophil recruitment [1]: 87%
inhibition of BAL lymphocyte recruitment [1]: 86%
inhibition of BAL neutrophil recruitment [1]: 90%
effect on IL-5 level in BAL [2]: significantly decreased
effect on levels of IL-4, IL-5 and IL-13 in lung homogenate [3]: significantly decreased
effect on plasma OVA-specific IgE levels [4]: a slight decrease, although non significant
effect on lung CCL28 concentration [5]: had no effect on CCL28 levels
reduction of OVA-induced lung CCR3 mRNA expression [6]: 45%
effect on lung mucus (colorimetric assay, lung homogenate) [7]: trend towards reduction of mucus levels (ns)
effect on airway responses to MCh [8]: significantly decreased airway responses to MCh
effect on peribronchial and perivascular inflammatory cell infiltrates in lung [9]: substantial reduction of these cellular infiltrates
infiltrating inflammatory cells expressing CCR10 [10]: clearly reduced
reduction of lung collagen levels [11]: 64%
